Tested on: subjects with moderate-to-severe plaque psoriasis
Assay: PASI response, Example 2 long-term extension to Week 52
Format: in vivo, human
From the text: Described below is a multicenter, long-term extension (LTE), double-blind, dose-ranging, parallel group interventional study in participants from Example 1 to evaluate the long-term efficacy and safety of the hydrochloride salt of the compound of Formula (I) for the treatment of moderate-to-severe plaque psoriasis. Patients from Example 1 continued to receive the same dose of the compound of Formula (I) for an additional 36-week treatment period with a 4-week safety follow up period after the last administration of the compound of Formula (I). Patients randomized to placebo in Example 1 received the compound of Formula (I) at a dose of 100 mg QD starting at Week 16 of Example 1 (FIG. 21).
The primary efficacy endpoint is the proportion of participants achieving a PASI 75 response at Week 52, defined as at least a […] reduction from baseline PASI of Example 1. For primary analysis, composite strategy (non-responder imputation) was applied to address intercurrent event #1 (Discontinuation of study intervention due to lack of efficacy or due to an AE of worsening of psoriasis) and […] (initiation of a protocol-prohibited medication or therapy that could improve psoriasis); treatment policy strategy (observed data) was applied to intercurrent event #3 (Discontinuation of study intervention due to other reasons). Participants with missing data after application of ICEs are considered as non-responders.
Since there was no control arm (after week 16), in this primary analysis, only the proportion of participants who achieved a PASI75 response and its […] confidence interval at Week 52 were summarized for each intervention group.

[1] = Week 20, Placebo → 100 mg QD, N=35
[2] = Week 24, Placebo → 100 mg QD, N=35
[3] = Week 28, Placebo → 100 mg QD, N=35
[4] = Week 32, Placebo → 100 mg QD, N=35
[5] = Week 40, Placebo → 100 mg QD, N=35
[6] = Week 52, Placebo → 100 mg QD, N=35

CC(=O)NCCCC[C@@H]1NC(=O)[C@H](Cc2c[nH]c3c(C)cccc23)NC(=O)[C@H]([C@@H](C)O)NC(=O)[C@H](CC(N)=O)NC(=O)[C@@H](NC(C)=O)C(C)(C)SSC(C)(C)[C@@H](C(=O)N[C@@H](Cc2ccc(OCCN)cc2)C(=O)N[C@@H](Cc2ccc3ccccc3c2)C(=O)NC2(C(=O)N[C@@H](CCC(=O)O)C(=O)N[C@@H](CC(N)=O)C(=O)N[C@@H](Cc3cccnc3)C(=O)N(C)CC(N)=O)CCOCC2)NC1=O [IL-23 receptor antagonist peptide, Ac-[Pen]*-N-T-[W(7-Me)]-[Lys(Ac)]-[Pen]*-Phe[4-(2-aminoethoxy)]-[2-Nal]-[THP]-E-N-[3-Pal]-Sarc-NH2 (*[Pen]-[Pen]* formdisulfidebond)]
PASI ≥90% Improvement, subjects (%) (Week 20, 100 mg BID, N=42): (61.9%) | PASI 100% Improvement, subjects (%) (Week 20, 100 mg QD, N=43): (14.0%) | PASI ≥75% Improvement, subjects (%) (Week 20, 100 mg QD, N=43): (60.5%) | PASI ≥90% Improvement, subjects (%) (Week 20, 100 mg QD, N=43): (44.2%) | PASI 100% Improvement, subjects (%) [1]: (2.9%) | PASI ≥75% Improvement, subjects (%) [1]: (40.0%) | PASI ≥90% Improvement, subjects (%) [1]: (14.3%) | PASI 100% Improvement, subjects (%) (Week 24, 25 mg BID, N=41): (19.5%) | PASI ≥75% Improvement, subjects (%) (Week 24, 25 mg BID, N=41): (61.0%) | PASI ≥90% Improvement, subjects (%) (Week 24, 25 mg BID, N=41): (29.3%) | PASI 100% Improvement, subjects (%) (Week 24, 25 mg QD, N=43): (16.3%) | PASI ≥75% Improvement, subjects (%) (Week 24, 25 mg QD, N=43): (46.5%) | PASI ≥90% Improvement, subjects (%) (Week 24, 25 mg QD, N=43): (32.6%) | PASI 100% Improvement, subjects (%) (Week 24, 50 mg QD, N=43): (27.9%) | PASI ≥75% Improvement, subjects (%) (Week 24, 50 mg QD, N=43): (60.5%) | PASI ≥90% Improvement, subjects (%) (Week 24, 50 mg QD, N=43): (53.5%) | PASI 100% Improvement, subjects (%) (Week 24, 100 mg BID, N=42): (35.7%) | PASI ≥75% Improvement, subjects (%) (Week 24, 100 mg BID, N=42): (81.0%) | PASI ≥90% Improvement, subjects (%) (Week 24, 100 mg BID, N=42): (69.0%) | PASI 100% Improvement, subjects (%) (Week 24, 100 mg QD, N=43): (20.9%) | PASI ≥75% Improvement, subjects (%) (Week 24, 100 mg QD, N=43): (69.8%) | PASI ≥90% Improvement, subjects (%) (Week 24, 100 mg QD, N=43): (55.8%) | PASI 100% Improvement, subjects (%) [2]: (8.6%) | PASI ≥75% Improvement, subjects (%) [2]: (60.0%) | PASI ≥90% Improvement, subjects (%) [2]: (22.9%) | PASI 100% Improvement, subjects (%) (Week 28, 25 mg BID, N=41): (17.1%) | PASI ≥75% Improvement, subjects (%) (Week 28, 25 mg BID, N=41): (61.0%) | PASI ≥90% Improvement, subjects (%) (Week 28, 25 mg BID, N=41): (36.6%) | PASI 100% Improvement, subjects (%) (Week 28, 25 mg QD, N=43): (18.6%) | PASI ≥75% Improvement, subjects (%) (Week 28, 25 mg QD, N=43): (39.5%) | PASI ≥90% Improvement, subjects (%) (Week 28, 25 mg QD, N=43): (27.9%) | PASI 100% Improvement, subjects (%) (Week 28, 50 mg QD, N=43): (14.0%) | PASI ≥75% Improvement, subjects (%) (Week 28, 50 mg QD, N=43): (69.8%) | PASI ≥90% Improvement, subjects (%) (Week 28, 50 mg QD, N=43): (48.8%) | PASI 100% Improvement, subjects (%) (Week 28, 100 mg BID, N=42): (38.1%) | PASI ≥75% Improvement, subjects (%) (Week 28, 100 mg BID, N=42): (78.6%) | PASI ≥90% Improvement, subjects (%) (Week 28, 100 mg BID, N=42): (61.9%) | PASI 100% Improvement, subjects (%) (Week 28, 100 mg QD, N=43): (25.6%) | PASI ≥75% Improvement, subjects (%) (Week 28, 100 mg QD, N=43): (65.1%) | PASI ≥90% Improvement, subjects (%) (Week 28, 100 mg QD, N=43): (51.2%) | PASI 100% Improvement, subjects (%) [3]: (14.3%) | PASI ≥75% Improvement, subjects (%) [3]: (62.9%) | PASI ≥90% Improvement, subjects (%) [3]: (22.9%) | PASI 100% Improvement, subjects (%) (Week 32, 25 mg BID, N=41): (17.1%) | PASI ≥75% Improvement, subjects (%) (Week 32, 25 mg BID, N=41): (53.7%) | PASI ≥90% Improvement, subjects (%) (Week 32, 25 mg BID, N=41): (39.0%) | PASI 100% Improvement, subjects (%) (Week 32, 25 mg QD, N=43): (18.6%) | PASI ≥75% Improvement, subjects (%) (Week 32, 25 mg QD, N=43): (48.8%) | PASI ≥90% Improvement, subjects (%) (Week 32, 25 mg QD, N=43): (30.2%) | PASI 100% Improvement, subjects (%) (Week 32, 50 mg QD, N=43): (25.6%) | PASI ≥75% Improvement, subjects (%) (Week 32, 50 mg QD, N=43): (65.1%) | PASI ≥90% Improvement, subjects (%) (Week 32, 50 mg QD, N=43): (51.2%) | PASI 100% Improvement, subjects (%) (Week 32, 100 mg BID, N=42): (33.3%) | PASI ≥75% Improvement, subjects (%) (Week 32, 100 mg BID, N=42): (78.6%) | PASI ≥90% Improvement, subjects (%) (Week 32, 100 mg BID, N=42): (66.7%) | PASI 100% Improvement, subjects (%) (Week 32, 100 mg QD, N=43): (25.6%) | PASI ≥75% Improvement, subjects (%) (Week 32, 100 mg QD, N=43): (69.8%) | PASI ≥90% Improvement, subjects (%) (Week 32, 100 mg QD, N=43): (62.8%) | PASI 100% Improvement, subjects (%) [4]: (20.0%) | PASI ≥75% Improvement, subjects (%) [4]: (65.7%) | PASI ≥90% Improvement, subjects (%) [4]: (40.0%) | PASI 100% Improvement, subjects (%) (Week 40, 25 mg BID, N=41): (14.6%) | PASI ≥75% Improvement, subjects (%) (Week 40, 25 mg BID, N=41): (53.7%) | PASI ≥90% Improvement, subjects (%) (Week 40, 25 mg BID, N=41): (31.7%) | PASI 100% Improvement, subjects (%) (Week 40, 25 mg QD, N=43): (11.6%) | PASI ≥75% Improvement, subjects (%) (Week 40, 25 mg QD, N=43): (48.8%) | PASI ≥90% Improvement, subjects (%) (Week 40, 25 mg QD, N=43): (32.6%) | PASI 100% Improvement, subjects (%) (Week 40, 50 mg QD, N=43): (20.9%) | PASI ≥75% Improvement, subjects (%) (Week 40, 50 mg QD, N=43): (67.4%) | PASI ≥90% Improvement, subjects (%) (Week 40, 50 mg QD, N=43): (46.5%) | PASI 100% Improvement, subjects (%) (Week 40, 100 mg BID, N=42): (35.7%) | PASI ≥75% Improvement, subjects (%) (Week 40, 100 mg BID, N=42): (78.6%) | PASI ≥90% Improvement, subjects (%) (Week 40, 100 mg BID, N=42): (64.3%) | PASI 100% Improvement, subjects (%) (Week 40, 100 mg QD, N=43): (25.6%) | PASI ≥75% Improvement, subjects (%) (Week 40, 100 mg QD, N=43): (69.8%) | PASI ≥90% Improvement, subjects (%) (Week 40, 100 mg QD, N=43): (55.8%) | PASI 100% Improvement, subjects (%) [5]: (28.6%) | PASI ≥75% Improvement, subjects (%) [5]: (60.0%) | PASI ≥90% Improvement, subjects (%) [5]: (45.7%) | PASI 100% Improvement, subjects (%) (Week 52, 25 mg BID, N=41): (17.1%) | PASI ≥75% Improvement, subjects (%) (Week 52, 25 mg BID, N=41): (58.5%) | PASI ≥90% Improvement, subjects (%) (Week 52, 25 mg BID, N=41): (36.6%) | PASI 100% Improvement, subjects (%) (Week 52, 25 mg QD, N=43): (14.0%) | PASI ≥75% Improvement, subjects (%) (Week 52, 25 mg QD, N=43): (48.8%) | PASI ≥90% Improvement, subjects (%) (Week 52, 25 mg QD, N=43): (27.9%) | PASI 100% Improvement, subjects (%) (Week 52, 50 mg QD, N=43): (20.9%) | PASI ≥75% Improvement, subjects (%) (Week 52, 50 mg QD, N=43): (69.8%) | PASI ≥90% Improvement, subjects (%) (Week 52, 50 mg QD, N=43): (41.9%) | PASI 100% Improvement, subjects (%) (Week 52, 100 mg BID, N=42): (40.5%) | PASI ≥75% Improvement, subjects (%) (Week 52, 100 mg BID, N=42): (76.2%) | PASI 100% Improvement, subjects (%) (Week 52, 100 mg QD, N=43): (25.6%) | PASI ≥75% Improvement, subjects (%) (Week 52, 100 mg QD, N=43): (65.1%) | PASI ≥90% Improvement, subjects (%) (Week 52, 100 mg QD, N=43): (51.2%) | PASI 100% Improvement, subjects (%) [6]: (34.3%) | PASI ≥75% Improvement, subjects (%) [6]: (65.7%) | PASI ≥90% Improvement, subjects (%) [6]: (57.1%) | PASI and IGA response rates (from Week 16 to Week 52): generally maintained

Reference: patent publication US20260232767A1, “INTERLEUKIN-23 RECEPTOR ANTAGONIST PEPTIDES FOR USE IN THE TREATMENT OF PSORIASIS” (Janssen Pharmaceutica NV, priority 2023, published 2026)
